# Experiment: Log P by HPLC on reversed phase columns (EEC directive 79/831 Annex V.A8)
# Format: physicochemical
# Settings: method [a]: LC-UV, acidic range, 0.1% formic acid in water and acetonitrile
# In short: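 Values come from retention times calibrated against alkan-2-ones (3–16 carbons) by linear interpolation, using reversed-phase LC-UV per EEC directive 79/831 Annex V.A8. Acetonitrile gradient 10–95% with 0.1% formic acid [a], 0.001 M ammonium acetate [b] or 0.1% phosphoric acid [c]; several values within one method separated by "+".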
row,LogP,Structure (SMILES)
1,4.27^[a],CC[C@H](C)[C@H](NC(=O)c1sc(Cl)c(Br)c1C)C(=O)OC [I.0123]
2,4.37^[a],CC[C@H](C)[C@H](NC(=O)c1sc(Br)c(Br)c1F)C(=O)OC [I.0141]
3,1.80^[a],O=C1CC(NC(=O)c2cc(Br)c(Cl)s2)CCN1 (stereo not shown) [I.0223]
4,1.73^[a],O=C1CC(NC(=O)c2cc(Br)c(Cl)s2)CN1 (stereo not shown) [I.0225]
5,3.09^[a],COC(=O)C(Cc1ccccc1)NC(=O)C(CC(=O)O)NC(=O)c1sc(Br)c(Cl)c1C (stereo not shown) [I.0339]
6,2.70^[a],COC(=O)C(Cc1ccccc1)NC(=O)C(CC(=O)O)NC(=O)c1sc(C#N)c(Br)c1C (stereo not shown) [I.0501]
7,3.28^[a],O=C(N[C@H]1CCSC1=O)c1sc(Cl)c(Br)c1Cl [I.0525]
8,1.94^[a],Cc1c(C(=O)N[C@H]2CCOC2=O)sc(C#N)c1Br [I.0761]
9,2.05^[a],N#Cc1sc(C(=O)NC2CCOC2=O)c(Cl)c1Cl (stereo not shown) [I.0819]
10,2.48^[a],Cc1c(C(=O)NC2CCOC2=O)sc(Cl)c1Br (stereo not shown) [I.0820]
11,2.63^[a],O=C(NC1CCOC1=O)c1sc(Cl)c(Cl)c1Br (stereo not shown) [I.0839]
12,6.46^[a],N#CC1(NC(=O)c2sc(Br)c(Br)c2Cl)CCC(C2CCCCC2)CC1 (stereo not shown) [I.0869]
13,2.59^[a],O=C(N[C@H]1CCOC1=O)c1sc(Cl)c(Cl)c1Br [I.0931]
14,2.29^[a],O=C(N[C@H]1CCCNC1=O)c1sc(Cl)c(Br)c1Cl [I.0939]
15,2.99^[a],O=C(NC1CCCCNC1=O)c1sc(Cl)c(Cl)c1Br (stereo not shown) [I.0945]
16,2.05^[a],O=C(N[C@H]1CCCNC1=O)c1sc(Br)c(Br)c1F [I.0950]
17,2.31^[a],O=C(N[C@H]1CCCNC1=O)c1sc(Br)c(Br)c1Cl [I.0956]
18,4.78^[a],N#CC1(NC(=O)c2sc(Br)c(Br)c2F)CCC(c2ccccc2)CC1 (stereo not shown) [I.1009]
19,3.24^[a],O=C(N[C@H]1CCSC1=O)c1sc(Cl)c(Cl)c1Br [I.1011]
20,2.58^[a],O=C(NC1CCOC1=O)c1sc(Br)c(Br)c1Cl (stereo not shown) [I.1031]
21,2.44^[a],O=C(O)c1sc(Br)c(Br)c1C(F)(F)F [II.004]
22,2.44^[a],O=C(O)c1sc(Cl)c(Br)c1Cl [II.012]
23,2.08^[a],Cc1sc(C(=O)O)c(F)c1Br [II.013]
24,2.80^[a],Cc1c(C(=O)O)sc(Cl)c1Br [II.014]
25,1.95^[a],Cc1c(C(=O)O)sc(C#N)c1Cl [II.016]
26,4.08^[a],COC(=O)c1sc(Br)c(Br)c1C(F)(F)F [II.019]
27,3.47^[a],COC(=O)c1sc(Br)c(Cl)c1F [II.020]
28,3.47^[a],COC(=O)c1sc(Cl)c(Br)c1F [II.025]
29,4.02^[a],COC(=O)c1sc(Cl)c(Br)c1Br [II.026]
30,3.06^[a],COC(=O)c1sc(Br)c(C#N)c1C [II.029]

# Second part, the compound before the results:
row,Structure (SMILES),LogP
1,O=C(NC1CCNC1=O)c1cc(Cl)c(Br)s1 (stereo not shown) [I.0218],1.71^[a]
2,O=C1CC(NC(=O)c2cc(Cl)c(Br)s2)CCN1 (stereo not shown) [I.0219],1.77^[a]
3,O=C(NC1CCOC1=O)c1cc(Cl)c(Br)s1 (stereo not shown) [I.0220],2.09^[a]
4,O=C1CC(NC(=O)c2cc(Cl)c(Br)s2)CN1 (stereo not shown) [I.0221],1.71^[a]
5,O=C(NC1CCNC1=O)c1cc(Br)c(Cl)s1 (stereo not shown) [I.0222],1.73^[a]
6,O=C(NC1CCOC1=O)c1cc(Br)c(Cl)s1 (stereo not shown) [I.0224],2.14^[a]
7,CCC(C)C(NC(=O)c1sc(Br)c(Br)c1F)C(=O)O (stereo not shown) [I.0235],3.40^[a]
8,CC[C@H](C)[C@H](NC(=O)c1sc(Br)c(Cl)c1C)C(=O)OC [I.0322],4.25^[a]
9,COC(=O)[C@H](Cc1ccccc1)NC(=O)[C@H](CC(=O)O)NC(=O)c1sc(Br)c(Br)c1F [I.0338],2.98^[a]
10,COC(=O)[C@H](Cc1ccccc1)NC(=O)[C@H](CC(=O)O)NC(=O)c1sc(Cl)c(Br)c1C [I.0340],3.13^[a]
11,COC(=O)C(Cc1ccccc1)NC(=O)C(CC(=O)O)NC(=O)c1sc(Cl)c(Cl)c1Br (stereo not shown) [I.0487],3.23^[a]
12,COC(=O)[C@H](Cc1ccccc1)NC(=O)[C@H](CC(=O)O)NC(=O)c1sc(Br)c(Br)c1Cl [I.0488],3.20^[a]
13,CCOC(=O)C(C)(C)NC(=O)C(C)(C)NC(=O)c1sc(Cl)c(Br)c1Br [I.0699],3.94^[a]
14,O=C(NC1CCOC1=O)c1sc(Cl)c(Cl)c1C(F)F (stereo not shown) [I.0747],2.40^[a]
15,Cc1c(C(=O)N[C@H]2CCOC2=O)sc(Cl)c1Br [I.0762],2.45^[a]
16,Cc1c(C(=O)N[C@H]2CCOC2=O)sc(Br)c1Cl [I.0763],2.42^[a]
17,O=C(N[C@H]1CNC1=O)c1sc(Cl)c(Cl)c1Br [I.0808],2.03^[a]
18,N#Cc1c(C(=O)NC2CCOC2=O)sc(Cl)c1Cl (stereo not shown) [I.0818],2.02^[a]
19,Cc1c(C(=O)NC2CCSC2=O)sc(Br)c1Cl (stereo not shown) [I.0822],3.46^[a]
20,Cc1c(C(=O)NC2CCOC2=O)sc(Br)c1Cl (stereo not shown) [I.0825],2.45^[a]
21,Cc1c(C(=O)NC2CCSC2=O)sc(C#N)c1Br (stereo not shown) [I.0829],2.45^[a]
22,Cc1c(C(=O)N[C@H]2CCSC2=O)sc(C#N)c1Br [I.0866],2.39^[a]
23,O=C(N[C@H]1CCSC1=O)c1sc(Br)c(Br)c1Cl [I.0867],3.24^[a]
24,N#CC1(NC(=O)c2sc(Br)c(Br)c2Cl)CCC(c2ccccc2)CC1 (stereo not shown) [I.0870],4.97^[a]
25,O=C(N[C@H]1CCOC1=O)c1sc(Br)c(Br)c1Cl [I.0932],2.62^[a]
26,O=C(N[C@H]1CCCNC1=O)c1sc(Cl)c(Cl)c1Br [I.0944],2.30^[a]
27,O=C(NC1CCOC1=O)c1sc(Cl)c(Br)c1Cl (stereo not shown) [I.0949],2.56^[a]

row,Structure (SMILES),LogP
1,O=C(NC1CCCCNC1=O)c1sc(Br)c(Br)c1F (stereo not shown) [I.0951],2.68^[a]
2,O=C(NC1CCCCNC1=O)c1sc(Br)c(Br)c1Cl (stereo not shown) [I.0957],2.99^[a]
3,O=C(NC1CCSC1=O)c1sc(Br)c(Br)c1Cl (stereo not shown) [I.1005],3.25^[a]
4,O=C(NC1CCSC1=O)c1sc(Cl)c(Cl)c1Br (stereo not shown) [I.1006],3.25^[a]
5,N#CC1(NC(=O)c2sc(Br)c(Br)c2F)CCC(C2CCCCC2)CC1 (stereo not shown) [I.1012],6.13^[a]
6,Cc1c(C(=O)NC2CCOC2=O)sc(C#N)c1Br (stereo not shown) [I.1034],1.92^[a]
7,O=C(NC1CCOC1=O)c1sc(Br)c(Br)c1C(F)F (stereo not shown) [I.1066],2.46^[a]
8,N#Cc1c(Br)sc(C(=O)O)c1Cl [II.001],1.66^[a]
9,N#Cc1c(Cl)sc(C(=O)O)c1Cl [II.002],1.59^[a]
10,O=C(O)c1sc(Cl)c(Cl)c1C(F)F [II.003],2.39^[a]
11,O=C(O)c1sc(Cl)c(Br)c1F [II.005],2.14^[a]
12,O=C(O)c1sc(Br)c(Br)c1C(F)F [II.006],2.46^[a]
13,Cc1c(C(=O)O)sc(Br)c1C#N [II.007],2.03^[a]
14,Cc1c(C(=O)O)sc(Cl)c1C#N [II.008],1.94^[a]
15,O=C(O)c1sc(Br)c(Cl)c1F [II.009],2.18^[a]
16,O=C(O)c1sc(Br)c(Cl)c1Cl [II.010],2.51^[a]
17,O=C(O)c1sc(Cl)c(Br)c1Br [II.011],2.57^[a]
18,Cc1c(C(=O)O)sc(Br)c1Cl [II.015],2.75^[a]
19,Cc1c(C(=O)O)sc(I)c1Br [II.017],2.86^[a]
20,Cc1c(C(=O)O)sc(Br)c1I [II.018],2.92^[a]
21,COC(=O)c1sc(Br)c(C#N)c1Cl [II.021],2.87^[a]
22,COC(=O)c1sc(Cl)c(C#N)c1Cl [II.022],2.82^[a]
23,COC(=O)c1sc(Cl)c(Cl)c1C(F)F [II.023],3.77^[a]
24,Cc1sc(C(=O)OCC(C)C)c(F)c1Br [II.024],4.77^[a]
25,COC(=O)c1sc(Cl)c(Br)c1Cl [II.027],3.94^[a]
26,CCOC(=O)c1sc(I)c(Br)c1C [II.030],5.03^[a]

# Same assay, conditions: method [a]: LC-UV, acidic range, 0.1% formic acid in water and acetonitrile; listed as 1.0821
row,LogP,Structure (SMILES)
1,3.03^[a],Cc1c(C(=O)NC2CCSC2=O)sc(Cl)c1Br (stereo not shown) [I.0821]

# Same assay, conditions: method [a]: LC-UV, acidic range, 0.1% formic acid in water and acetonitrile; listed as 1.0958
row,LogP,Structure (SMILES)
1,2.28^[a],O=C(NC1CCOC1=O)c1sc(Br)c(Br)c1F (stereo not shown) [I.0958]

# Same assay, conditions: reversed phase HPLC columns, value in preparation example, method not marked
row,chromatographic logP,Structure (SMILES)
1,2.97,"CCOC(=O)CNC(=O)c1sc(Br)c(Br)c1F [I.0449, ethyl N-[(4,5-dibromo-3-fluoro-2-thienyl)carbonyl]glycinate]"
2,2.25,"NC(=S)CNC(=O)c1sc(Br)c(Br)c1F [I.0896, N-(2-amino-2-sulfanylideneethyl)-4,5-dibromo-3-fluorothiophene-2-carboxamide]"

# Continued, compound first:
row,Structure (SMILES),chromatographic logP
1,"CCSC(=O)C1(NC(=O)c2sc(Br)c(Br)c2I)CC1 [I.0139, S-ethyl 1-{[(4,5-dibromo-3-iodo-2-thienyl)carbonyl]amino}cyclopropanecarbothioate]",3.96
2,"O=C(NC1(C(=O)O)CCC1)c1sc(Br)c(Br)c1F [I.0172, 1-{[(4,5-dibromo-3-fluoro-2-thienyl)carbonyl]amino}cyclobutanecarboxylic acid]",2.57
3,"O=C(O)CNC(=O)c1sc(Br)c(Br)c1F [I.0227, N-[(4,5-dibromo-3-fluoro-2-thienyl)carbonyl]glycine]",1.97
4,"CCOC(=O)[C@H](CC(C)C)NC(=O)c1sc(Cl)c(Cl)c1C#N [I.0279, ethyl N-[(4,5-dichloro-3-cyano-2-thienyl)carbonyl]leucinate]",4.05
5,"CCOC(=O)CNC(=O)c1sc(C)c(Cl)c1F [I.0793, ethyl N-[(4-chloro-3-fluoro-5-methyl-2-thienyl)carbonyl]glycinate]",2.54
6,"NC(=O)CNC(=O)c1sc(Br)c(Br)c1F [I.0894, N-(2-amino-2-oxoethyl)-4,5-dibromo-3-fluorothiophene-2-carboxamide]",1.69
7,"CCOC(=O)C(C)(C)NC(=O)c1sc(Cl)c(Cl)c1Br [I.1062, ethyl N-[(3-bromo-4,5-dichloro-2-thienyl)carbonyl]-2-methylalaninate]",4.24

# Reference: patent publication US12642270B2, “Substituted thiophene carboxamides, thiophene carboxylic acids and derivatives thereof” (Bayer Aktiengesellschaft, priority 2019, dated 2026)
